Measured values taken from patent US20240261274A1, “TREATMENT OF MYC-DRIVEN CANCERS WITH GSPT1 DEGRADERS” (MONTE ROSA THERAPEUTICS, INC., priority 2021, published 2024).
Where two headings read alike, the source gives them in different places.

Experiments:
[1] = tested on: c-Myc HMEC isogenic cell line; test: c-Myc and CRBN dependency, HMEC isogenic cell line viability (CellTiterGlo); assay type: cell-based, Human; conditions: 72 hours
Procedure: Human mammary epithelial cells (HMEC) were engineered to express either c-Myc tagged with EGFP or EGFP alone (non myc) (analogous but distinct from Kessler J D et al, Science. 2012 Jan. 20; 335(6066):348-53. doi: 10.1126/science.1212728; Hsu T Y et al, Nature. 2015 Sep. 17; 525(7569):384-8. doi: 10.1038/nature14985). The engineered cells were plated in 6 well plates or seeded at 1000 (myc) or 4000 (non myc) cells/well in a 384 ultra-low attachment plate in a total volume of 40 μL HMEC cell culture media (DMEM/F12+10% HI-FBS+15 mM HEPES+0.5 ug/ml Hydrocortisone+10 ug/ml Insulin+20 ng/ml EGF). Cells were cultured in the presence or absence of doxycycline for 25 population doublings and cell lysates generated for western blotting probing for c-Myc, 4EBP1, phosphor-4EBP1 (p4EBP1) as indicated. β-actin used as a loading control. For the wash-off lane, doxycycline was removed 24 hours before cell lysis. Cell viability was assessed in the presence (Myc on) or absence (Myc off, −Dox) of doxycycline and also following doxycycline removal (Myc off, wash-off). Cell viability was performed following treatment with compound 8 for 72 hours as recommended by the provider (Promega, CellTiterGlo). Similarly, CRBN-dependency was assessed in the HMEC proficient and deficient cell lines induced for c-Myc expression with doxycycline and viability performed as above following 72 hours of treatment with compound 8. EC50 values were determined using Prism8 (GraphPad) and the asymmetric (five-parameter) equation and least squares fit.

[2] = tested on: human cell line NCI-H1770 xenograft; test: N-Myc-driven mouse xenograft model, NCI-H1770, compound 210 oral; assay type: in vivo
L-Myc = L-Myc levels in SCLC lines after Compound 345 (western blot); assay type: cell-based; conditions: SCLC lines NCI-H1836 and NCI-H1876
Text: NCI-H1836 and NCI-H1876 were taken as two representatives of L-Myc high SCLC. Western blot analysis probing for GSPT1 and L-Myc following treatment with Compound 345 as indicated. GAPDH was used as a loading control.

GSPT1 = GSPT1 (Homo sapiens, UniProt P15170+Q96SW2); test: GSPT1 degradation by immunoblotting in cancer cell lines (Compound 345); assay type: cell-based; design: endogenous in cells; host or cells: MM1 S (ATCC CRL-2974); conditions: for GSPT1 degradation (immunoblots): 0.03, 0.3, 3 μM; for DC50: read-out: GSPT1 DC50
Sequence of GSPT1 (P15170 whole entry): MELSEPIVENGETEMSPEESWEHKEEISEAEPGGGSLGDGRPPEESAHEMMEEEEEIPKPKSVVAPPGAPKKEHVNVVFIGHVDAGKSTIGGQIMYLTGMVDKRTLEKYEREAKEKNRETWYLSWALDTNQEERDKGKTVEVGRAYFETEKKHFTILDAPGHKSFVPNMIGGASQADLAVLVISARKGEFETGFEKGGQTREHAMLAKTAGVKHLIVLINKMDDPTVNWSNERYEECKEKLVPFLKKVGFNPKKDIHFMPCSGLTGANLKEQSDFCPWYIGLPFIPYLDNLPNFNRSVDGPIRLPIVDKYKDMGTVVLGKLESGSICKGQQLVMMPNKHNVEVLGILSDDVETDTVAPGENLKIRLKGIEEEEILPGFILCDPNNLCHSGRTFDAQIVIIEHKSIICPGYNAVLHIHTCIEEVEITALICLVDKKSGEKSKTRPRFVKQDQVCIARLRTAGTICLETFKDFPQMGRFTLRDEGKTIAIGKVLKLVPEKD
Sequence of GSPT1 (Q96SW2 whole entry): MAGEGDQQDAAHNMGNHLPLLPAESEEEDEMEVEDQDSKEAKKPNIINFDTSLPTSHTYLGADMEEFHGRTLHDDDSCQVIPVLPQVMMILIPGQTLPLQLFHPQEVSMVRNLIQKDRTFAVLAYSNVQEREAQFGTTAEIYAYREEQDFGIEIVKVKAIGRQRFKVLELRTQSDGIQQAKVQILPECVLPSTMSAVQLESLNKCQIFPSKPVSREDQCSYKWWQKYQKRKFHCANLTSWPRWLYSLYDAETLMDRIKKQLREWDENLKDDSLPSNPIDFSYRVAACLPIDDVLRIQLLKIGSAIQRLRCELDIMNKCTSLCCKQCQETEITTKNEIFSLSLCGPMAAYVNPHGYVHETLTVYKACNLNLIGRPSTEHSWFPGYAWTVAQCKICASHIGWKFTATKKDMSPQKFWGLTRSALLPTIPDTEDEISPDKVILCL
Sequence of GSPT1 (Q16531 whole entry partner): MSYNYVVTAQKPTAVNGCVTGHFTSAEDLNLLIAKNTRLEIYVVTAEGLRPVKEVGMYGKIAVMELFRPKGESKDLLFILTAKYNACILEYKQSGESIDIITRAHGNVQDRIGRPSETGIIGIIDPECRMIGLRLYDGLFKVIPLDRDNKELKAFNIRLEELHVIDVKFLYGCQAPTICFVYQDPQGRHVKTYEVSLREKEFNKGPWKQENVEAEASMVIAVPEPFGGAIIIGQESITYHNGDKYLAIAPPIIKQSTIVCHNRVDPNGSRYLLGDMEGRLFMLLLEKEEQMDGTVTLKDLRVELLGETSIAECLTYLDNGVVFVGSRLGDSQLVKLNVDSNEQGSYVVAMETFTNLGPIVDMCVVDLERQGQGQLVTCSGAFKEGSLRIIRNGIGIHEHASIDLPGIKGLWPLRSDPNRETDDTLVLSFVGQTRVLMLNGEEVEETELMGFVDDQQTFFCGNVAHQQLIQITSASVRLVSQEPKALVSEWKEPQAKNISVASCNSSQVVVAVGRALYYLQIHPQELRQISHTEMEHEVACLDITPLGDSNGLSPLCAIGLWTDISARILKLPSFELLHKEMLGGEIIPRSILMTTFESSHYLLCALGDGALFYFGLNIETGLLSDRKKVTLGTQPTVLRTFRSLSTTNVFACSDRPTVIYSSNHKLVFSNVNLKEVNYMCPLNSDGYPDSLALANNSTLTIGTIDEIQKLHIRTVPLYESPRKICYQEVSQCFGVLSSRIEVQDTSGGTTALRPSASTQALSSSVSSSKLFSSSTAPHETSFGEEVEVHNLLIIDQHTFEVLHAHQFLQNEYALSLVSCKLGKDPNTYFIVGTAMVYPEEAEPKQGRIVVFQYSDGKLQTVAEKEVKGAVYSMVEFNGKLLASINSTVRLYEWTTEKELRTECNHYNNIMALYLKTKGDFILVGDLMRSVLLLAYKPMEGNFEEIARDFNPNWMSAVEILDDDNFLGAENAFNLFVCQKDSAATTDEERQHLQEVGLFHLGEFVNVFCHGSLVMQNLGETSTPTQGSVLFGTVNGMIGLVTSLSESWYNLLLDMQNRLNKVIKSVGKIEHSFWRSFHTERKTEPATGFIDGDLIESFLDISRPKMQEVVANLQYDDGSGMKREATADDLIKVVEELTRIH
Procedure: Two high N-Myc expressing NSCLC cell lines (NCI-H155 and ABC-1) and two low N-Myc expressing NSCLC cell lines (NCI-H2023 and NCI-H441) were treated with Compound 345 in culture. Cells were treated with increasing concentrations of the compound (0.0; 0.00064; 0.0032; 0.016; 0.08; 0.4; 2.0; 10; and 30 nM), lysates were prepared, SDS-PAGE and immunoblotting was performed, and transfer membranes were probed for GSPT1 and GAPDH as a loading control. Expression levels of GSPT1 detected in the immunoblots of this experiment are plotted against concentration of Compound 345 in FIG. 10B. DC50 values (the concentration of the compound at which the target protein is degraded by 50%) were estimated for each cell line. NCI-H155, DC50=14 nM; ABC-1, DC50=76 nM; NCI-H2023, DC50=18 nM; NCI-H441, DC50=8.7 nM. Estimated Dmax for all cell lines was 95%-99%.
GSPT1 and N-Myc western blotting analyses from cell line lysates: NCI-H1155, NCI-H2023, NCI-H441, ABC-1, NCI-H1836, NCI-H1876, MM.1S, DOHH2 and WSU-DLCLC2 cells were typically seeded in a 6 or 12 well plate (0.3 to 1.0×10^6 cells/mL) and incubated overnight. Compound 345 was dissolved in DMSO to obtain a 10 mM stock solution, and aliquots were stored at −20° C. The next day, cells were treated with various concentrations of Compound 345 or DMSO (Sigma, D2650) using a HP D300 dispenser (Tecan). Controls were pretreated for 30 minutes with Bortezomib (0.2 μM). Cells were washed with ice cold PBS at the indicated timepoints post addition of Compound 345 and lysed with 50 to 100 μL lysis buffer containing RIPA buffer (Invitrogen, R0278) and a mix of protease inhibitor cocktail (Sigma, P8340, 5726 and 0044). Protein concentration was assessed using the BCA assay (Pierce™ Rapid Gold BCA Protein Assay Kit, A53227) and 10 μg of protein was typically loaded onto a TGX Stain free 4-20% Criterion gel (Biorad, 5678095) for separation. Gel was transferred onto a 0.2 μm nitrocellulose membrane using the TransBlot transfer system (Biorad). Membranes were blocked in Every Blot Blocking Buffer (Biorad, 12010020) and incubated overnight at 4° C. with either of the following primary antibody: anti-GSPT1 diluted 1/5000th (Sigma, HPA052488), anti-N-Myc clone D1V2A diluted 1/1000th (Cell Signaling Technology, 84406), anti-α-Tubulin clone DM1A Alexa Fluor® 488 Conjugated (Cell Signaling Technology, Cat. No. CST8058) or anti-GAPDH Alexa647-coupled diluted 1/2500th (Invitrogen, MA5-15738-A647). The next day, a secondary HRP-conjugated goat anti-rabbit secondary antibody (Invitrogen, A16110) was used to allow detection of unlabelled primary antibodies. Membranes were imaged on a ChemiDoc imager (Biorad) using either fluorescence or chemiluminescence detection. Images were quantified using the Image Lab Software Version 6.1 (Biorad). Images were adjusted for alignment and contrast. Columns were manually defined to enable the band detection by the software. Band intensities, or densitometries, were exported to Excel (Microsoft® Excel® for Microsoft 365 MSO Version 2110) for further analysis. Briefly, band intensity for the protein of interest was normalized to the DMSO control, before being normalized to the GAPDH band intensity for the same column. Normalised data was transferred to GraphPad Prism 8.1.2 (GraphPad) and fitted using a four parameters models ([Inhibitor] vs. response—Variable slope) defined by the following equation: Y=Dmax+(Top−Dmax)/(1+(DC50/X)^HillSlope). Key degradation parameters reported included DC50 (concentration at which the GSPT1 total protein levels are reduced by 50%) and Dmax (maximum fractional amount of protein degraded).

[3] = MM1 S multiple myeloma cells, 24 hours

Cc1ccc(NC(=O)NCc2ccc3c(c2)C(=O)N(C2CCC(=O)NC2=O)C3)cc1Cl (centres unmarked) [Compound 8]
cell death in cells for which cereblon was knocked out ([1]; CRBN deficient HMEC induced for c-Myc): did not induce death | EC50 ([1]; Homo sapiens, HMEC, absence of doxycycline-driven c-Myc expression, read-out: cell death, highest concentration tested): > 30 µM | EC50 ([1]; Homo sapiens, HMEC, presence of high c-Myc expression (doxycycline), read-out: EC50 of induced cell death): 0.64 µM | EC50 ([1]; after doxycycline was washed out to remove c-Myc expression, read-out: cell death, highest concentration tested): > 30 µM

Cc1ccc(NC(=O)OCc2ccc3c(c2)C(=O)N(C2CCC(=O)NC2=O)C3)cc1Cl (centres unmarked) [Compound 210]
tumor size ([2]; 3 mg/kg once daily): tumor size decreased and remained so until the end of the study | tumor size ([2]; 6 mg/kg, five days on and nine days off): tumor size decreased and remained so until the end of the study | body weight ([2]; oral administration): no body weight loss observed | tumor growth ([2]; oral administration): tumor growth inhibition

O=C1CCC(N2Cc3ccc(COC(=O)Nc4cc(OC(F)(F)F)ccc4F)cc3C2=O)C(=O)N1 (centres unmarked) [Compound 345, (2-(2,6-dioxopiperidin-3-yl)-3-oxoisoindolin-5-yl)methyl(2-fluoro-5-(trifluoromethoxy)phenyl)carbamate]
L-Myc level, timecourse (L-Myc): downregulation of L-Myc | Dmax (GSPT1; [3]): 100% | GSPT1 degradation (immunoblots) (GSPT1; NCI-H155 and NCI-H2023, 0, 2, 6 hours): efficient degradation of GSPT1 in a time and dose dependent manner | GSPT1 degradation (immunoblots) (GSPT1; SCLC cell lines NCI-H1836 and NCI-H1876, up to 24 hours): efficient degradation of GSPT1 in SCLC cell lines in a time and dose dependent manner | Dmax (GSPT1; WSUDLCL2, WSU-DLCL2 triple hit lymphoma cells, 24 hours): 100% | Dmax (GSPT1; all cell lines (NCI-H155, ABC-1, NCI-H2023, NCI-H441)): 95 to 99% | DC50 (GSPT1; ABC-1 (high N-Myc NSCLC)): 76 nM | DC50 (GSPT1; [3]): 6 nM | DC50 (GSPT1; NCI-H155 (high N-Myc NSCLC)): 14 nM | DC50 (GSPT1; NCI-H441 (low N-Myc NSCLC)): 8.7 nM | DC50 (GSPT1; NCI-H2023 (low N-Myc NSCLC)): 18 nM | DC50 (GSPT1; WSU-DLCL2 triple hit lymphoma cells, 24 hours): 24 nM
